# Measurements reported in US8551937B2, “Peptide having an extending action for half-life of object peptide in plasma” (priority 2008, dated 2013).
# Where a SMILES comes first, the peptide text is derived from it.
# Experiment: Motilin immunoreactivity concentration in plasma, half-life after intravenous administration (Example 8)
# Settings: male, SD, rat, in vivo, iv, 10 nmol/kg
# How it was run: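 Male SD rats (7 weeks, n=3/group) received human motilin or derivative at 10 nmol/kg i.v. via tail vein; arterial blood was sampled up to 60 min, with EDTA and aprotinin added. Plasma motilin immunoreactivity was measured by competitive RIA using a rabbit polyclonal antibody against native motilin residues 1–12 and ^125I-[Tyr^7] human motilin tracer.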
row,Compound,half-life [min]
1,CC[C@H](C)[C@H](NC(=O)[C@@H]1CCCN1C(=O)[C@@H](NC(=O)[C@@H](N)Cc1ccccc1)C(C)C)C(=O)N[C@@H](Cc1ccccc1)C(=O)N[C@H](C(=O)N[C@@H](Cc1ccc(O)cc1)C(=O)NCC(=O)N[C@@H](CCC(=O)O)C(=O)N[C@@H](CC(C)C)C(=O)N[C@@H](CCC(N)=O)C(=O)N[C@@H](CCCNC(=N)N)C(=O)N[C@H](C(=O)N[C@@H](CCC(N)=O)C(=O)N[C@@H](CCC(N)=O)C(=O)N[C@@H](CCCNC(=N)N)C(=O)N[C@@H](CCCCN)C(=O)N[C@@H](CCC(=O)O)C(=O)N[C@H](C(=O)N[C@@H](CCCCN)C(=O)N[C@@H](CCCCN)C(=O)N1CCC[C@H]1C(=O)N1CCC[C@H]1C(=O)N[C@@H](C)C(=O)N[C@@H](CCCCN)C(=O)N[C@@H](CC(C)C)C(=O)N[C@@H](CCC(N)=O)C(=O)N1CCC[C@H]1C(=O)N[C@@H](CCCNC(=N)N)C(=O)O)[C@@H](C)O)C(C)C)[C@@H](C)O [Chimeric motilin (P)(MG-18S/T)] (H-FVPIFTYGELQRVQQRKETKKPPAKLQPR-OH; N-terminus and C-terminus assumed),9.67
2,CC[C@H](C)[C@H](NC(=O)[C@@H]1CCCN1C(=O)[C@@H](NC(=O)[C@@H](N)Cc1ccccc1)C(C)C)C(=O)N[C@@H](Cc1ccccc1)C(=O)N[C@H](C(=O)N[C@@H](Cc1ccc(O)cc1)C(=O)NCC(=O)N[C@@H](CCC(=O)O)C(=O)N[C@@H](CC(C)C)C(=O)N[C@@H](CCC(N)=O)C(=O)N[C@@H](CCCNC(=N)N)C(=O)N[C@H](C(=O)N[C@@H](CCC(N)=O)C(=O)N[C@@H](CCC(N)=O)C(=O)N[C@@H](CCCNC(=N)N)C(=O)N[C@@H](CCCCN)C(=O)N[C@@H](CCC(=O)O)C(=O)N[C@@H](CO)C(=O)N[C@@H](CCCCN)C(=O)N[C@@H](CCCCN)C(=O)N1CCC[C@H]1C(=O)N1CCC[C@H]1C(=O)N[C@@H](C)C(=O)N[C@@H](CCCCN)C(=O)N[C@@H](CC(C)C)C(=O)N[C@@H](C)C(=O)N[C@@H](C)C(=O)N[C@@H](CC(C)C)C(=O)N[C@@H](CCCCN)C(=O)N[C@@H](C)C(=O)O)C(C)C)[C@@H](C)O [Chimeric motilin (VI)(MG-H1)] (H-FVPIFTYGELQRVQQRKESKKPPAKLAALKA-OH; N-terminus and C-terminus assumed),9.94
3,CC[C@H](C)[C@H](NC(=O)[C@@H]1CCCN1C(=O)[C@@H](NC(=O)[C@@H](N)Cc1ccccc1)C(C)C)C(=O)N[C@@H](Cc1ccccc1)C(=O)N[C@H](C(=O)N[C@@H](Cc1ccc(O)cc1)C(=O)NCC(=O)N[C@@H](CCC(=O)O)C(=O)N[C@@H](CC(C)C)C(=O)N[C@@H](CCC(N)=O)C(=O)N[C@@H](CCCNC(=N)N)C(=O)N[C@H](C(=O)N[C@@H](CCC(N)=O)C(=O)N[C@@H](CCC(N)=O)C(=O)N[C@@H](CCCNC(=N)N)C(=O)N[C@@H](CCCCN)C(=O)N[C@@H](CC(N)=O)C(=O)N[C@@H](CO)C(=O)N[C@@H](CCCCN)C(=O)N[C@@H](CCCCN)C(=O)N1CCC[C@H]1C(=O)N1CCC[C@H]1C(=O)N[C@@H](C)C(=O)N[C@@H](CCCCN)C(=O)N[C@@H](CC(C)C)C(=O)N[C@@H](CCC(N)=O)C(=O)N1CCC[C@H]1C(=O)N[C@@H](CCCNC(=N)N)C(=O)O)C(C)C)[C@@H](C)O [Chimeric motilin (T)(MG-17E/N)] (H-FVPIFTYGELQRVQQRKNSKKPPAKLQPR-OH; N-terminus and C-terminus assumed),5.47
4,CC[C@H](C)[C@H](NC(=O)[C@@H]1CCCN1C(=O)[C@@H](NC(=O)[C@@H](N)Cc1ccccc1)C(C)C)C(=O)N[C@@H](Cc1ccccc1)C(=O)N[C@H](C(=O)N[C@@H](Cc1ccc(O)cc1)C(=O)NCC(=O)N[C@@H](CCC(=O)O)C(=O)N[C@@H](CC(C)C)C(=O)N[C@@H](CCC(N)=O)C(=O)N[C@@H](CCCNC(=N)N)C(=O)N[C@H](C(=O)N[C@@H](CCC(N)=O)C(=O)N[C@@H](CCC(N)=O)C(=O)N[C@@H](CCCNC(=N)N)C(=O)N[C@@H](CCCCN)C(=O)N[C@@H](CCC(=O)O)C(=O)N1CCC[C@H]1C(=O)N[C@@H](CCCCN)C(=O)N[C@@H](CCCCN)C(=O)N1CCC[C@H]1C(=O)N1CCC[C@H]1C(=O)N[C@@H](C)C(=O)N[C@@H](CCCCN)C(=O)N[C@@H](CC(C)C)C(=O)N[C@@H](CCC(N)=O)C(=O)N1CCC[C@H]1C(=O)N[C@@H](CCCNC(=N)N)C(=O)O)C(C)C)[C@@H](C)O [Chimeric motilin (Q)(MG-18S/P)] (H-FVPIFTYGELQRVQQRKEPKKPPAKLQPR-OH; N-terminus and C-terminus assumed),9.65
5,CC[C@H](C)[C@H](NC(=O)[C@@H]1CCCN1C(=O)[C@@H](NC(=O)[C@@H](N)Cc1ccccc1)C(C)C)C(=O)N[C@@H](Cc1ccccc1)C(=O)N[C@H](C(=O)N[C@@H](Cc1ccc(O)cc1)C(=O)NCC(=O)N[C@@H](CCC(=O)O)C(=O)N[C@@H](CC(C)C)C(=O)N[C@@H](CCC(N)=O)C(=O)N[C@@H](CCCNC(=N)N)C(=O)N[C@H](C(=O)N[C@@H](CCC(N)=O)C(=O)N[C@@H](CCC(N)=O)C(=O)N[C@@H](CCCNC(=N)N)C(=O)N[C@@H](CCCCN)C(=O)N[C@@H](CCC(=O)O)C(=O)N[C@@H](CO)C(=O)N[C@@H](CCCCN)C(=O)N[C@@H](CCCCN)C(=O)N1CCC[C@H]1C(=O)N1CCC[C@H]1C(=O)N[C@@H](C)C(=O)N[C@@H](CCC(=O)O)C(=O)N[C@@H](CC(C)C)C(=O)N[C@@H](C)C(=O)N[C@@H](C)C(=O)N[C@@H](CC(C)C)C(=O)N[C@@H](CCCCN)C(=O)N[C@@H](C)C(=O)O)C(C)C)[C@@H](C)O [Chimeric motilin (VIII)(MG-H4)] (H-FVPIFTYGELQRVQQRKESKKPPAELAALKA-OH; N-terminus and C-terminus assumed),11.6
6,CC[C@H](C)[C@H](NC(=O)[C@@H]1CCCN1C(=O)[C@@H](NC(=O)[C@@H](N)Cc1ccccc1)C(C)C)C(=O)N[C@@H](Cc1ccccc1)C(=O)N[C@H](C(=O)N[C@@H](Cc1ccc(O)cc1)C(=O)NCC(=O)N[C@@H](CCC(=O)O)C(=O)N[C@@H](CC(C)C)C(=O)N[C@@H](CCC(N)=O)C(=O)N[C@@H](CCCNC(=N)N)C(=O)N[C@H](C(=O)N[C@@H](CCC(N)=O)C(=O)N[C@@H](CCC(N)=O)C(=O)N[C@@H](CCCNC(=N)N)C(=O)N[C@@H](CCCCN)C(=O)N[C@@H](CCC(=O)O)C(=O)N[C@@H](CO)C(=O)N[C@@H](CCCCN)C(=O)N[C@@H](CCCCN)C(=O)N1CCC[C@H]1C(=O)N1CCC[C@H]1C(=O)N[C@@H](C)C(=O)N[C@@H](CCC(=O)O)C(=O)N[C@@H](CC(C)C)C(=O)N[C@@H](C)C(=O)N[C@@H](C)C(=O)N[C@@H](CC(C)C)C(=O)N[C@@H](CCC(=O)O)C(=O)N[C@@H](C)C(=O)O)C(C)C)[C@@H](C)O [Chimeric motilin (VII)(MG-H3)] (H-FVPIFTYGELQRVQQRKESKKPPAELAALEA-OH; N-terminus and C-terminus assumed),12.8
7,CC[C@H](C)[C@H](NC(=O)[C@@H]1CCCN1C(=O)[C@@H](NC(=O)[C@@H](N)Cc1ccccc1)C(C)C)C(=O)N[C@@H](Cc1ccccc1)C(=O)N[C@H](C(=O)N[C@@H](Cc1ccc(O)cc1)C(=O)NCC(=O)N[C@@H](CCC(=O)O)C(=O)N[C@@H](CC(C)C)C(=O)N[C@@H](CCC(N)=O)C(=O)N[C@@H](CCCNC(=N)N)C(=O)N[C@H](C(=O)N[C@@H](CCC(N)=O)C(=O)N[C@@H](CCC(N)=O)C(=O)N[C@@H](CCCNC(=N)N)C(=O)N[C@@H](CCCCN)C(=O)NCC(=O)N[C@@H](CCC(=O)O)C(=O)N[C@@H](CO)C(=O)N[C@@H](CCCCN)C(=O)N[C@@H](CCCCN)C(=O)N1CCC[C@H]1C(=O)N1CCC[C@H]1C(=O)N[C@@H](C)C(=O)N[C@@H](CCCCN)C(=O)N[C@@H](CC(C)C)C(=O)N[C@@H](CCC(N)=O)C(=O)N1CCC[C@H]1C(=O)N[C@@H](CCCNC(=N)N)C(=O)O)C(C)C)[C@@H](C)O [Chimeric motilin (Z)(MG-i17G)] (H-FVPIFTYGELQRVQQRKGESKKPPAKLQPR-OH; N-terminus and C-terminus assumed),10.5
8,CC[C@H](C)[C@H](NC(=O)[C@@H]1CCCN1C(=O)[C@@H](NC(=O)[C@@H](N)Cc1ccccc1)C(C)C)C(=O)N[C@@H](Cc1ccccc1)C(=O)N[C@H](C(=O)N[C@@H](Cc1ccc(O)cc1)C(=O)NCC(=O)N[C@@H](CCC(=O)O)C(=O)N[C@@H](CC(C)C)C(=O)N[C@@H](CCC(N)=O)C(=O)N[C@@H](CCCNC(=N)N)C(=O)N[C@H](C(=O)N[C@@H](CCC(N)=O)C(=O)N[C@@H](CCC(N)=O)C(=O)N[C@@H](CCCNC(=N)N)C(=O)N[C@@H](CCCCN)C(=O)NCC(=O)NCC(=O)N[C@@H](CCC(=O)O)C(=O)N[C@@H](CO)C(=O)NCC(=O)N[C@@H](CCCCN)C(=O)N[C@@H](CCCCN)C(=O)N1CCC[C@H]1C(=O)N1CCC[C@H]1C(=O)N[C@@H](C)C(=O)N[C@@H](CCCCN)C(=O)N[C@@H](CC(C)C)C(=O)N[C@@H](CCC(N)=O)C(=O)N1CCC[C@H]1C(=O)N[C@@H](CCCNC(=N)N)C(=O)O)C(C)C)[C@@H](C)O [Chimeric motilin (III) (MG-i17G2-19iG)] (H-FVPIFTYGELQRVQQRKGGESGKKPPAKLQPR-OH; N-terminus and C-terminus assumed),10.7
9,CC[C@H](C)[C@H](NC(=O)[C@@H]1CCCN1C(=O)[C@@H](NC(=O)[C@@H](N)Cc1ccccc1)C(C)C)C(=O)N[C@@H](Cc1ccccc1)C(=O)N[C@H](C(=O)N[C@@H](Cc1ccc(O)cc1)C(=O)NCC(=O)N[C@@H](CCC(=O)O)C(=O)N[C@@H](CC(C)C)C(=O)N[C@@H](CCC(N)=O)C(=O)N[C@@H](CCCNC(=N)N)C(=O)N[C@H](C(=O)N[C@@H](CCC(N)=O)C(=O)N[C@@H](CCC(N)=O)C(=O)N[C@@H](CCCNC(=N)N)C(=O)N[C@@H](CCCCN)C(=O)N[C@@H](CCC(N)=O)C(=O)N[C@@H](CO)C(=O)N[C@@H](CCCCN)C(=O)N[C@@H](CCCCN)C(=O)N1CCC[C@H]1C(=O)N1CCC[C@H]1C(=O)N[C@@H](C)C(=O)N[C@@H](CCCCN)C(=O)N[C@@H](CC(C)C)C(=O)N[C@@H](CCC(N)=O)C(=O)N1CCC[C@H]1C(=O)N[C@@H](CCCNC(=N)N)C(=O)O)C(C)C)[C@@H](C)O [Chimeric motilin (U)(MG-17E/Q)] (H-FVPIFTYGELQRVQQRKQSKKPPAKLQPR-OH; N-terminus and C-terminus assumed),5.66
